From PMC11674141, “Antimicrobial activity and synergistic effect of phage-encoded antimicrobial peptides with colistin and outer membrane permeabilizing agents against Acinetobacter baumannii” (PeerJ, 2024)
Like-named read-outs stand apart in the source and are kept apart here. Where no end group is shown, it is not given here.

How the values were obtained:
[1] = system: MDR-AB, XDR-AB
[2] = system: HepG2 cell line; assay: MTT cell viability assay; format: cell-based, human; set-up: key to Mean cell viability (Mean 2; control = 100): % viability relative to control (control = 100%); conditions: for IC50 (reduction of viable cells to 50%): 24 h, three independent experiments; for Mean cell viability (Mean 2; control = 100): mean of n = 3
Experimental: We aimed to determine the effects of peptides on cell viability and proliferation in the human hepatocellular carcinoma HepG2 cell line. The MTT assay was performed as described by [Muangpat et al. (2022)] with some modifications. The cells were cultured in Dulbecco’s Modified Eagle Medium (DMEM; Sigma-Aldrich, St. Louis, MO, USA), supplemented with 10% fetal bovine serum (FBS), 100 U/ml penicillin, and 100 μg/ml streptomycin at 37 °C in 5% CO^2 and 95% humidity. The cells were seeded into a 96-well plate at a density of 1 × 10^4 cells/well and allowed to adhere overnight. Then, the cells were exposed for 24 h to various concentrations of peptides. The control cells were cultured in complete DMEM medium containing 0.2% DMSO. After the 24-h incubation period, 20 μL of MTT solution (5 mg/mL in PBS) (Tokyo Chemical Industry Co., Ltd., Tokyo, Japan) was added to each well and incubated for another 2 h at 37 °C. The culture medium was then removed, and formazan crystals formed by viable cells were dissolved in 100 μL of DMSO before measuring the absorbance at 590 nm using a microplate spectrophotometer. The effect of the peptide on cell viability was calculated as a percentage of the control, which was arbitrarily assigned a value of 100% viability. The percentage of cell viability was calculated relative to the control group. The IC₅₀ of the peptides was defined as the concentration that caused a 50% reduction in cell viability compared with the control. The MTT assay was conducted in three independent experiments, each with triplicate wells per condition.

[3] = system: A. baumannii ATCC19606; conditions: for Minimum Inhibitory Concentration (MIC): A. baumannii 19606, sensitive
[4] = system: Bacillus subtilis; conditions: B. subtilis, sensitive
[5] = system: Pseudomonas aeruginosa; conditions: P. aeruginosa, sensitive
[6] = system: Escherichia coli; conditions: E. coli, sensitive
[7] = system: Staphylococcus aureus; conditions: S. aureus, sensitive
[8] = system: twenty biofilm-forming A. baumannii strains; assay: Inhibition of biofilm formation (crystal violet); format: cell-based, Acinetobacter baumannii; set-up: Percent biofilm forming inhibition: concentration or dose not given beside the values; conditions: for average percent inhibition of biofilm formation: twenty A. baumannii strains, peptide at MIC (312.5, 156.25, 156.25 µg/mL), 24 h, crystal violet OD595
Experimental: We determined the ability of peptides to inhibit biofilm formation in twenty biofilm-forming strains using the method described by [Karyne et al. (2020)] with some modifications. Briefly, biofilm-forming strains of A. baumannii were adjusted to an equivalent of the 0.5 McFarland standard in 2× Luria Bertani (LB) broth supplemented with 20% glucose. Then, 50 µL of A. baumannii and 50 µL of peptides were added. […] The plates were incubated overnight at 37 °C. After 24 h of incubation, the culture medium was gently removed, and the wells were washed three times with phosphate-buffered saline. The adherent cells were fixed with absolute methanol for 10 min, stained with 0.4% crystal violet for 15 min, and washed three times with sterile distilled water, then air-dried. The plates were then filled with 250 µL of 33% acetic acid for 15 min. The absorbance at OD595 nm was determined. All experiments were performed in three independent assays, each repeated in triplicate, and the percentage of biofilm reduction was calculated based on treated wells vs. non-treated wells.

[9] = system: Klebsiella pneumoniae; conditions: K. pneumoniae, sensitive
[10] = system: A. baumannii ATCC19606
[11] = peptide concentration 25 (unit not given)
[12] = peptide concentration 50 (unit not given)
[13] = peptide concentration 156.25 (unit not given)
[14] = peptide concentration 300 (unit not given)
[15] = peptide concentration 600 (unit not given)
[16] = peptide concentration 800 (unit not given)
[17] = A. baumannii 19,606, microdilution, MHB, 37 °C overnight, triplicate samples

Row | MIC (ATCC19606) ([3]; ATCC19606) [µg/mL] | MIC values ([3]; ATCC19606) | Substance | Minimum Inhibitory Concentration (MIC) ([1]; strain AB003, MDR-AB) [µg/mL] | Minimum Inhibitory Concentration (MIC) ([1]; strain AB183, XDR-AB) [µg/mL] | Minimum Inhibitory Concentration (MIC) ([1]; strain AB329, XDR-AB) [µg/mL] | Minimum Inhibitory Concentration (MIC) ([1]; strain CR89, MDR-AB) [µg/mL] | Minimum Inhibitory Concentration (MIC) [3] [µg/mL] | MIC values [3, 17] [µg/mL] | MIC (ATCC19606) ([3]; A. baumannii ATCC19606) [µg/mL] | Minimum Inhibitory Concentration (MIC) [4] [µg/mL] | Minimum Inhibitory Concentration (MIC) [5] [µg/mL] | Minimum Inhibitory Concentration (MIC) [6] [µg/mL] | Minimum Inhibitory Concentration (MIC) [7] [µg/mL] | average percent inhibition of biofilm formation [8] [%] | Minimum Inhibitory Concentration (MIC) [9] [µg/mL] | FIC index, peptide plus colistin ([10]; ATCC19606) | further results
1 |  |  | KIAIQIAIKGMLNGWFTGVGFRRKR [PE04-2] | 78.12 | 78.12 | 156.25 | 156.25 | 156.25 | 156.25 | 156.25 | 39.06 | 312.5 | 156.25 | 39.06 | 91.92 | 312.5 | 0.14 | IC50 (reduction of viable cells to 50%) [2]: 424.1 µg/mL; Mean cell viability (Mean 2; control = 100) [2, 11]: 90.16; Mean cell viability (Mean 2; control = 100) [2, 12]: 91.63; Mean cell viability (Mean 2; control = 100) [2, 13]: 79.64; Mean cell viability (Mean 2; control = 100) [2, 14]: 71.67; Mean cell viability (Mean 2; control = 100) [2, 15]: 32.89; Mean cell viability (Mean 2; control = 100) [2, 16]: 14.6; Percent biofilm forming inhibition ([8]; strain AB57, XDR-AB / CR-AB, 2013): 92.3659%; Percent biofilm forming inhibition ([8]; strain AB263, MDR-AB, 2014): 88.4382%; FICI ([10]; ATCC19606): 0.25
2 | > 5000 | >5,000 ug/ml | KRQTLADKKERKKFHDGLMLNDNIR [PIN02] |  |  |  |  |  |  |  |  |  |  |  |  |  |  | 
3 |  |  | LIAIQIAIKGMLNGWFTGVGFRRKR [PE04-1] | 312.5 | 156.25 | 625 | 312.5 | 312.5 | 312.5 | 312.5 | 39.06 | 2500 | 2500 | 39.06 | 58.11 | 2500 | 0.19 | IC50 (reduction of viable cells to 50%) [2]: 1,440 ug/ml; Percent biofilm forming inhibition ([8]; strain AB23, MDR-AB / CR-AB, 2013): 92.1075%; Percent biofilm forming inhibition ([8]; strain CR65-47, MDR-AB / CR-AB, 2022): 61.4919%
4 |  |  | LIAIQIAIKGMLNGWFTGVGFRRKR-NH2 [PE04-1(NH2)] | 156.25 | 156.25 | 312.5 | 312.5 | 156.25 | 156.25 | 156.25 | 19.531 | 2500 | 156.25 | 39.06 | 75.51 | 625 | 0.19 | Mean cell viability (Mean 2; control = 100) [2, 11]: 94.88; Mean cell viability (Mean 2; control = 100) [2, 12]: 86.43; Mean cell viability (Mean 2; control = 100) [2, 13]: 81.93; Mean cell viability (Mean 2; control = 100) [2, 14]: 76.66; Mean cell viability (Mean 2; control = 100) [2, 15]: 49.65; Mean cell viability (Mean 2; control = 100) [2, 16]: 28.83; Percent biofilm forming inhibition ([8]; strain AB263, MDR-AB, 2014): 89.6713%
5 |  |  | LIAIQIAIKGMLNGWFTGVGFRRKR-NH2 [PE04-1-NH2] |  |  |  |  |  |  |  |  |  |  |  |  |  |  | MIC alone ([10]; ATCC19606, checkerboard, agent alone): 156.25 µg/mL
6 | > 2500 | >2,500 ug/ml | LNSKDYAGAAAQFLVWNKGRVKGKL [PE02-1] |  |  |  |  |  |  |  |  |  |  |  |  |  |  | 
7 | 1250 | 1,250 ug/ml | WNKGRVKGKLEVIPGLTNRRKKEKA [PE02-2] |  |  |  |  |  |  |  |  |  |  |  |  |  |  | 
